Experiment [1] deals with Mus musculus. Kind of experiment: Antinociceptive activity in mouse acute phase inflammatory pain model assessed as inhibition of formalin-induced licking/biting behavior at 16 mg/kg, iv in presence of opioid receptor antagonist naloxone. It is filed as functional, organism-based.
Experiment [2] concerns Mus musculus. The experiment can be described thus: Antinociceptive activity in mouse assessed as inhibition of tail flick at 16 mg/kg, iv in presence of opioid receptor antagonist naloxone. It is filed as functional, organism-based.
Experiment [3] addresses T1, Mu-type opioid receptor (Homo sapiens, UniProt P35372). Kind of experiment: Displacement of [3H]-DAMGO from mu opioid receptor (unknown origin) transfected in HEK293 cells. It is filed as cell-based. (In a radioligand displacement assay an active substance lowers the binding of a labelled ligand.)
Experiment [4] concerns Mus musculus. Kind of experiment: Antinociceptive activity in mouse assessed as inhibition of tail flick at 16 mg/kg, iv in presence of opioid receptor antagonist naloxone methiodide. The format is functional, organism-based.
Experiment [5] deals with Mus musculus. Kind of experiment: Antinociceptive activity in mouse assessed as inhibition of tail flick at 20 nmol, icv in presence of opioid receptor antagonist naloxone. The format is functional, organism-based.
For experiment [6], the system named is Mus musculus. The experiment can be described thus: Antinociceptive activity in mouse assessed as inhibition of tail flick at 4 to 16 mg/kg, iv measured at 60 mins relative to control. The format is functional.
Experiment [7] has as its target Delta-type opioid receptor (Homo sapiens, UniProt P41143). Kind of experiment: Displacement of [3H]-DPDPE from delta opioid receptor (unknown origin) transfected in HEK293 cells. The format is cell-based.
Experiment [8] has as its system Mus musculus. Kind of experiment: Antinociceptive activity in iv dosed mouse acute phase inflammatory pain model assessed as inhibition of formalin-induced licking/biting behavior. It is filed as functional, organism-based.
In experiment [9] the test system is Mus musculus. The experiment can be described thus: Antinociceptive activity in icv dosed mouse assessed as inhibition of tail flick measured at 5 to 60 mins. The format is functional. Conditions: for ED50: central.
The species entered for a further experiment is Homo sapiens. Kind of experiment: Selectivity ratio of Ki for delta opioid receptor (unknown origin) to Ki for mu opioid receptor (unknown origin).
Experiment [10] deals with T1, Mu-type opioid receptor. Kind of experiment: Agonist activity at mu opioid receptor (unknown origin) transfected in HEK293 cells assessed as inhibition of forskolin-stimulated cAMP production. The format is functional, cell-based. (In general: Changes in cAMP serve as a functional read-out for many G protein-coupled receptors.)
In experiment [11] the test system is Mus musculus. The experiment can be described thus: Antinociceptive activity in mouse assessed as inhibition of tail flick at 16 mg/kg, iv measured at 5 to 60 mins relative to control. It is filed as functional.
Experiment [12] has as its system Mus musculus. Kind of experiment: Antinociceptive activity in iv dosed mouse assessed as inhibition of tail flick measured at 5 to 60 mins. It is filed as functional, organism-based.
Experiment [13] concerns Mus musculus. The experiment can be described thus: Antinociceptive activity in mouse assessed as inhibition of tail flick at 2 to 20 nmol, icv. The format is functional, organism-based. To be noted: TDE = time-dependent effect.
For experiment [14], the system named is Mus musculus. The experiment can be described thus: Antinociceptive activity in mouse prolonged tonic phase inflammatory pain model assessed as inhibition of formalin-induced licking/biting behavior at 16 mg/kg, iv in presence of opioid receptor antagonist naloxone. The format is functional, organism-based.
Experiment [15] relates to Mus musculus. The experiment can be described thus: Antinociceptive activity in iv dosed mouse prolonged tonic phase inflammatory pain model assessed as inhibition of formalin-induced licking/biting behavior. It is filed as functional, organism-based.
Experiment [16] deals with Mus musculus. The experiment can be described thus: Antinociceptive activity in mouse acute phase inflammatory pain model assessed as inhibition of formalin-induced licking/biting behavior at 4 mg/kg, iv. The format is functional, organism-based.
Experiment [17] has as its system Mus musculus. The experiment can be described thus: Antinociceptive activity in mouse assessed as inhibition of tail flick at 4 mg/kg, iv measured at 5 to 60 mins. It is filed as functional, organism-based.
For experiment [18], the system named is Mus musculus. Kind of experiment: Antinociceptive activity in mouse assessed as inhibition of tail flick at 2 to 20 nmol, icv measured up to 30 mins relative to control. It is filed as functional.
In experiment [19] the test system is Mus musculus. Kind of experiment: Antinociceptive activity in mouse assessed as inhibition of tail flick at 2 to 20 nmol, icv measured after 30 mins. The format is functional, organism-based.
Experiment [20] concerns Mus musculus. Kind of experiment: Antinociceptive activity in mouse prolonged tonic phase inflammatory pain model assessed as inhibition of formalin-induced licking/biting behavior at 4 mg/kg, iv. It is filed as functional, organism-based.

The results in this text go back to ChEMBL document CHEMBL3627650, “Design, synthesis, and evaluation of new endomorphin analogs with enhanced central antinociception after peripheral administration” (Bioorg Med Chem Lett, 2015).

The source made the active and inactive calls. The rule behind the calls is not given here.

For orientation: Ki means the equilibrium dissociation constant of an inhibitor or competing ligand from its target. Usually ED50 stands for the dose at which the effect has come halfway, by size or by number of responders. A word on the EC50: it is the concentration at which the effect is half-maximal. One may read the Emax as the maximal effect, on the per cent scale that the assay sets.

T1 sequence (P35372 whole entry): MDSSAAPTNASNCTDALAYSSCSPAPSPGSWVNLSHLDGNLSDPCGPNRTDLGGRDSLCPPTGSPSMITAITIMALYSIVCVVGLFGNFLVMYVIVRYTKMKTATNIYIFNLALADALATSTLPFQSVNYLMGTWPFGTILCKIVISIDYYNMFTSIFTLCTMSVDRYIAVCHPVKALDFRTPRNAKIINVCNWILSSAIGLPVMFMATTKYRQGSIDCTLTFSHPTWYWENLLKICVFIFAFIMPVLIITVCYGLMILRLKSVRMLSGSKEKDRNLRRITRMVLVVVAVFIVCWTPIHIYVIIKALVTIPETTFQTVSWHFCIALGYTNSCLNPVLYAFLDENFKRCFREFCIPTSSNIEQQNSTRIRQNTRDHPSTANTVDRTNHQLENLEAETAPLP
Chain of Delta-type opioid receptor (P41143 whole entry): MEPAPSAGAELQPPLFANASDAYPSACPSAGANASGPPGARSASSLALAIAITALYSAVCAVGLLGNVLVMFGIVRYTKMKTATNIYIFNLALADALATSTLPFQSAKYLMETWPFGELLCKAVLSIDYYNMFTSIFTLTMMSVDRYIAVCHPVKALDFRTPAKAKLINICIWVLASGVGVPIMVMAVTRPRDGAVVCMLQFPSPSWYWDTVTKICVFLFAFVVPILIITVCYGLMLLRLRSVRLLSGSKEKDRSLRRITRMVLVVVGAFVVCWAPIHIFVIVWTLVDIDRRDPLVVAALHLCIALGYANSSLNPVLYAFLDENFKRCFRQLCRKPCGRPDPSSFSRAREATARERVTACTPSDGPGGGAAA

As to `C=C(C(N)=O)[C@H](NC(=O)[C@H](Cc1c[nH]c2ccccc12)NC(=O)[C@@H]1CCCN1C(=O)[C@@H](N)Cc1ccc(O)cc1)c1cccs1`, the result in the experiment on Mus musculus [1], with Mus musculus [2], in the experiment on Mus musculus [5] and in the experiment with Mus musculus [14] was inactive. The Ki on Mu-type opioid receptor [3] came out at 0.565 nM; in [7], 12000 nM. Further, in the experiment with Mus musculus [4], the result was Active. The results for the MPE with Mus musculus [6] and in the experiment with Mus musculus [11] were 25% and 86.6%, respectively. For the same compound, the Activity entry is “Dose-dependent effect” in the experiment with Mus musculus [8]; “Dose-dependent effect” in the experiment on Mus musculus [9]; “Dose-dependent effect” in the experiment on Mus musculus [12]; “tde” with Mus musculus [13]; “Dose-dependent effect” in the experiment with Mus musculus [15]. Besides, the ED50 in the experiment with Mus musculus [9] came out at 0.00207 µmol/kg. Besides, the Ratio Ki in the experiment filed under Homo sapiens came out at 21300. Moreover, the half-maximal effective concentration (EC50) on Mu-type opioid receptor [10] came to 0.0629 nM. The Emax at Mu-type opioid receptor [10] came to 98.2%.

As for `C=C(C(N)=O)[C@H](NC(=O)[C@H](Cc1c[nH]c2ccccc12)NC(=O)[C@@H]1CCCN1C(=O)[C@@H](N)Cc1ccc(O)cc1)c1ccsc1`, the outcome in the experiment on Mus musculus [1], in the experiment with Mus musculus [2], in the experiment on Mus musculus [5] and in the experiment on Mus musculus [14] was inactive. In addition, the Ki came out at 0.515 nM on Mu-type opioid receptor [3] and 13300 nM in experiment [7]. In addition, in the experiment with Mus musculus [4], the outcome was Active. The MPE in the experiment on Mus musculus [6] stood at 25%; with Mus musculus [11], 89.8%. In addition, the Activity result in the experiment with Mus musculus [8] was “Dose-dependent effect”; in the experiment on Mus musculus [9], “Dose-dependent effect”; in the experiment with Mus musculus [12], “Dose-dependent effect”; in the experiment on Mus musculus [13] it was “tde”; in the experiment on Mus musculus [15], “Dose-dependent effect”. Besides, the 50% effective dose (ED50) with Mus musculus [9] was found to be 0.00223 µmol/kg. Moreover, the Ratio Ki in the experiment listed under Homo sapiens was 25800. For the same compound, the concentration for a half-maximal effect (EC50) at Mu-type opioid receptor [10] worked out at 0.0643 nM. Moreover, the maximum response (Emax) at Mu-type opioid receptor [10] was 97%.

For the compound `NC(=O)[C@H](Cc1ccccc1)NC(=O)[C@H](Cc1c[nH]c2ccccc12)NC(=O)[C@@H]1CCCN1C(=O)[C@@H](N)Cc1ccc(O)cc1` [ENDOMORPHIN-1], the result in the experiment with Mus musculus [16], with Mus musculus [17], in the experiment with Mus musculus [19] and with Mus musculus [20] was inactive. The MPE in the experiment with Mus musculus [18] is 52.1%.
